Reference: the NIST ThermoML archive (doi:10.1016/j.jct.2010.12.010)
Where “and” joins values, the source holds several entries; their conditions need not be identical. Equal entries are not always repeated.

Conditions: Liquid, Manometric method

CC(N)CN (centres undefined) [1,2-propanediamine]
Conditions	vapor or sublimation pressure
284.01 K	0.5922 kPa
293.15 K	1.085 kPa
293.98 K	1.147 kPa and 1.145 kPa
303.15 K	2.004 kPa
303.91 K	2.1 kPa and 2.098 kPa
313.15 K	3.535 kPa
313.84 K	3.667 kPa and 3.669 kPa and 3.659 kPa
323.15 K	5.985 kPa
324.02 K	6.238 kPa
333.15 K	9.764 kPa
334 K	10.11 kPa
343.15 K	15.41 kPa
353.15 K	23.61 kPa
363.15 K	35.21 kPa
363.91 K	36.31 kPa and 36.33 kPa

NCCCN [1,3-propanediamine]
Conditions	vapor or sublimation pressure
284.84 K	0.3186 kPa and 0.3177 kPa
293.15 K	0.5332 kPa
294.82 K	0.5842 kPa
303.15 K	0.9648 kPa
313.15 K	1.688 kPa
314.79 K	1.829 kPa
323.15 K	2.863 kPa
324.9 K	3.145 kPa
333.15 K	4.72 kPa
334.87 K	5.175 kPa
343.15 K	7.58 kPa
344.87 K	8.263 kPa
353.15 K	11.88 kPa
354.83 K	12.67 kPa
363.15 K	18.22 kPa
364.78 K	19.47 kPa

NCCCCN [1,4-butanediamine]
Conditions	vapor or sublimation pressure
284.92 K	0.1292 kPa and 0.1296 kPa
293.15 K	0.2012 kPa
303.15 K	0.3324 kPa
312.83 K	0.54 kPa
313.15 K	0.5322 kPa
323.15 K	0.8282 kPa
332.86 K	1.276 kPa
333.15 K	1.256 kPa
342.85 K	1.703 kPa
343.15 K	1.859 kPa
352.87 K	2.691 kPa and 2.692 kPa
353.15 K	2.692 kPa
362.86 K	3.797 kPa and 3.813 kPa and 3.794 kPa
362.88 K	3.8 kPa
362.9 K	3.807 kPa
363.15 K	3.822 kPa

NCCN [ethane-1,2-diamine]
Conditions	vapor or sublimation pressure
285.5 K	0.659 kPa
293.15 K	1.139 kPa
303.15 K	2.179 kPa
305.44 K	2.559 kPa
313.15 K	3.937 kPa
315.43 K	4.484 kPa
315.48 K	4.485 kPa
323.15 K	6.767 kPa
326.2 K	7.827 kPa
333.15 K	11.13 kPa
335.88 K	12.41 kPa
343.15 K	17.62 kPa
345.7 K	19.74 kPa and 19.73 kPa and 19.72 kPa
353.15 K	26.93 kPa
355.67 K	29.85 kPa and 29.83 kPa
355.69 K	29.84 kPa
363.15 K	39.94 kPa
365.6 K	43.83 kPa [middle of 4 runs]
365.63 K	43.82 kPa and 43.83 kPa and 43.81 kPa

O [water]
Conditions	vapor or sublimation pressure
285.15 K	1.362 kPa
293.15 K	2.277 kPa
295.14 K	2.562 kPa
303.15 K	4.165 kPa
313.15 K	7.284 kPa
315.19 K	8.02 kPa
323.15 K	12.23 kPa
325.11 K	13.5 kPa and 13.53 kPa
325.13 K	13.5 kPa and 13.52 kPa and 13.53 kPa
333.15 K	19.82 kPa
335.12 K	21.77 kPa
343.15 K	31.09 kPa
345.05 K	33.84 kPa
345.07 K	33.85 kPa and 33.84 kPa
353.15 K	47.34 kPa
355.03 K	51.15 kPa
363.15 K	70.22 kPa
364.97 K	75.14 kPa [middle of 5 runs]
